Assay [1] deals with Mus musculus. Description: Hepatoprotective activity against cadmium-induced hepatic damage in Swiss albino mouse assessed as inhibition of cadmium-induced LPO level at 3 mg/kg, po administered 7 days prior to first cadmium treatment followed by administration for 20 days concomitantly with cadmium. The assay is classed as functional, organism-based. Also on record: dose 3 mg/kg.

Assay [2] deals with Mus musculus. Description: Hepatoprotective activity against cadmium-induced oxidative damage in Swiss albino mouse assessed as inhibition of cadmium-induced GSH depletion at 3 mg/kg, po administered for 20 days concomitantly with cadmium. The assay is classed as functional, organism-based. Further details: dose 3 mg/kg.
The subject of assay [3] is Mus musculus. Description: Hepatoprotective activity against cadmium-induced oxidative damage in Swiss albino mouse assessed as inhibition of cadmium-induced GSH depletion at 3 mg/kg, po administered 7 days prior to first cadmium treatment followed by administration for 20 days concomitantly with cadmium. The assay is classed as functional, organism-based. Also on record: dose 3 mg/kg.

In assay [4] the test system is Mus musculus. Description: Hepatoprotective activity against cadmium-induced oxidative damage in Swiss albino mouse assessed as inhibition of cadmium-induced GST activity depletion at 3 mg/kg, po administered for 20 days concomitantly with cadmium. Further details: dose 3 mg/kg. The assay is classed as functional, organism-based.
The test system of assay [5] is Mus musculus. The experiment in a line: Hepatoprotective activity against cadmium-induced oxidative damage in Swiss albino mouse assessed as inhibition of cadmium-induced GST activity depletion at 3 mg/kg, po administered 7 days prior to first cadmium treatment followed by administration for 20 days concomitantly with cadmium. The assay is classed as functional, organism-based. Further details: dose 3 mg/kg.

The test system of assay [6] is Mus musculus. The experiment in a line: Hepatoprotective activity against cadmium-induced oxidative damage in Swiss albino mouse assessed as inhibition of cadmium-induced CAT activity depletion at 3 mg/kg, po administered for 20 days concomitantly with cadmium. The assay is classed as functional, organism-based. Also on record: dose 3 mg/kg.
For assay [7], the system named is Mus musculus. The experiment in a line: Hepatoprotective activity against cadmium-induced oxidative damage in Swiss albino mouse assessed as inhibition of cadmium-induced CAT activity depletion at 3 mg/kg, po administered 7 days prior to first cadmium treatment followed by administration for 20 days concomitantly with cadmium. The assay is classed as functional, organism-based. Also on record: dose 3 mg/kg.

The subject of assay [8] is Mus musculus. Description: Hepatoprotective activity against cadmium-induced oxidative damage in Swiss albino mouse assessed as inhibition of cadmium-induced SOD activity depletion at 3 mg/kg, po administered for 20 days concomitantly with cadmium. Also on record: dose 3 mg/kg. The assay is classed as functional, organism-based.
In assay [9] the test system is Mus musculus. The experiment in a line: Hepatoprotective activity against cadmium-induced oxidative damage in Swiss albino mouse assessed as inhibition of cadmium-induced SOD activity depletion at 3 mg/kg, po administered 7 days prior to first cadmium treatment followed by administration for 20 days concomitantly with cadmium. The assay is classed as functional, organism-based. Also on record: dose 3 mg/kg.

Assay [10] deals with Mus musculus. Description: Hepatoprotective activity against cadmium-induced hepatic damage in Swiss albino mouse assessed as inhibition of cadmium-induced elevation in serum AST level at 3 mg/kg, po administered for 20 days concomitantly with cadmium. The assay is classed as functional, organism-based. Further details: dose 3 mg/kg.
Assay [11] concerns Mus musculus. Description: Hepatoprotective activity against cadmium-induced hepatic damage in Swiss albino mouse assessed as inhibition of cadmium-induced elevation in serum AST level at 3 mg/kg, po administered 7 days prior to first cadmium treatment followed by administration for 20 days concomitantly with cadmium. Further details: dose 3 mg/kg. The assay is classed as functional, organism-based.

The subject of assay [12] is Mus musculus. The experiment in a line: Hepatoprotective activity against cadmium-induced hepatic damage in Swiss albino mouse assessed as inhibition of cadmium-induced elevation in serum ALT level at 3 mg/kg, po administered for 20 days concomitantly with cadmium. The assay is classed as functional, organism-based. Further details: dose 3 mg/kg.
Assay [13] concerns Mus musculus. The experiment in a line: Hepatoprotective activity against cadmium-induced hepatic damage in Swiss albino mouse assessed as inhibition of cadmium-induced elevation in serum ALT level at 3 mg/kg, po administered 7 days prior to first cadmium treatment followed by administration for 20 days concomitantly with cadmium. Also on record: dose 3 mg/kg. The assay is classed as functional, organism-based.

The subject of assay [14] is Mus musculus. The experiment in a line: Renoprotective activity against cadmium-induced renal damage in Swiss albino mouse assessed as inhibition of cadmium-induced BUN level […] at 3 mg/kg, po administered for 20 days concomitantly with cadmium. The assay is classed as functional, organism-based. Also on record: dose 3 mg/kg.
Assay [15] deals with Mus musculus. The experiment in a line: Renoprotective activity against cadmium-induced renal damage in Swiss albino mouse assessed as inhibition of cadmium-induced BUN level […] at 3 mg/kg, po administered 7 days prior to first cadmium treatment followed by administration for 20 days concomitantly with cadmium. The assay is classed as functional, organism-based. Also on record: dose 3 mg/kg.

In assay [16] the test system is Mus musculus. Description: Renoprotective activity against cadmium-induced renal damage in Swiss albino mouse assessed as inhibition of cadmium-induced creatinine level change at 3 mg/kg, po administered for 20 days concomitantly with cadmium. The assay is classed as functional, organism-based. Also on record: dose 3 mg/kg.
The test system of assay [17] is Mus musculus. Description: Renoprotective activity against cadmium-induced renal damage in Swiss albino mouse assessed as inhibition of cadmium-induced creatinine level change at 3 mg/kg, po administered 7 days prior to first cadmium treatment followed by administration for 20 days concomitantly with cadmium. The assay is classed as functional, organism-based. Further details: dose 3 mg/kg.

Assay [18] concerns Mus musculus. Description: Hepatoprotective activity against cadmium-induced hepatic damage in Swiss albino mouse assessed as ratio of liver weight to body weight at 3 mg/kg, po administered for 20 days concomitantly with cadmium. The assay is classed as functional.
In assay [19] the test system is Mus musculus. The experiment in a line: Hepatoprotective activity against cadmium-induced hepatic damage in Swiss albino mouse assessed as ratio of liver weight to body weight at 3 mg/kg, po administered 7 days prior to first cadmium treatment followed by administration for 20 days concomitantly with cadmium. The assay is classed as functional.
The test system of assay [20] is Mus musculus. Description: Hepatoprotective activity against cadmium-induced hepatic damage in Swiss albino mouse assessed as inhibition of cadmium-induced LPO level at 3 mg/kg, po administered for 20 days concomitantly with cadmium bt TBARS assay. Also on record: dose 3 mg/kg. The assay is classed as functional, organism-based.
In assay [21] the test system is Mus musculus. The experiment in a line: Hepatoprotective activity against cadmium-induced hepatic damage in Swiss albino mouse assessed as inhibition of cadmium-induced liver necrosis and inflammation at 3 mg/kg, po administered 7 days prior to first cadmium treatment followed by administration for 20 days concomitantly with cadmium. The assay is classed as functional, organism-based. Further details: dose 3 mg/kg.

Assay [22] has as its system Mus musculus. The experiment in a line: Hepatoprotective activity against cadmium-induced hepatic damage in Swiss albino mouse assessed as inhibition of cadmium-induced liver necrosis and inflammation at 3 mg/kg, po administered for 20 days concomitantly with cadmium. The assay is classed as functional, organism-based. Also on record: dose 3 mg/kg.

Active and inactive are the calls of the source. The calls are words filed in the database; no cut-off is given here.

With `COc1ccc2c(c1)CCCC21CC(=O)N(CCCC[Se]C#N)C1=O` (stereo not drawn), the inhibition result in the assay with Mus musculus [1], in the assay with Mus musculus [2], with Mus musculus [3], in the assay on Mus musculus [4], with Mus musculus [5] and in the assay on Mus musculus [6] was “Active” each time. In addition, the inhibition result in the assay on Mus musculus [7], in the assay on Mus musculus [10], in the assay on Mus musculus [11], in the assay on Mus musculus [12], in the assay on Mus musculus [13] and in the assay with Mus musculus [14] was “Active” each time. Moreover, the inhibition entry in the assay with Mus musculus [15] and in the assay on Mus musculus [20] was “Active” in each case. In addition, the inhibition entry with Mus musculus [8], with Mus musculus [9], in the assay with Mus musculus [16] and in the assay on Mus musculus [17] was “inactive” each time. The Ratio in the assay on Mus musculus [18] is 0.0487; in the assay on Mus musculus [19] it was 0.0466.
For the molecule `COc1ccc2c(c1)CCCC21CC(=O)N(CCC[Se]C#N)C1=O` (stereo not drawn), the inhibition result in the assay on Mus musculus [1], in the assay on Mus musculus [4], in the assay with Mus musculus [5], in the assay with Mus musculus [10], with Mus musculus [11] and in the assay on Mus musculus [15] was “Active” in each case. Besides, the inhibition entry in the assay with Mus musculus [20] is “Active”. Further, the inhibition result with Mus musculus [8], in the assay with Mus musculus [9], in the assay on Mus musculus [12], with Mus musculus [13], in the assay with Mus musculus [16] and in the assay with Mus musculus [17] was “inactive” each time. The Ratio came to 0.0483 in the assay on Mus musculus [18] and 0.0474 with Mus musculus [19].
In the case of `COc1ccc2c(c1)CCCC21CC(=O)N(CC[Se]C#N)C1=O` (stereo not drawn), the inhibition result with Mus musculus [1], in the assay with Mus musculus [4], in the assay on Mus musculus [5], in the assay on Mus musculus [10], with Mus musculus [11] and in the assay on Mus musculus [15] was “Active” each time. Also, the inhibition result in the assay with Mus musculus [20] was “Active”. In addition, the inhibition result in the assay on Mus musculus [2], in the assay on Mus musculus [3], with Mus musculus [8], in the assay on Mus musculus [9], in the assay with Mus musculus [12] and in the assay on Mus musculus [13] was “inactive” each time. In addition, the inhibition entry with Mus musculus [16] and in the assay on Mus musculus [17] was “inactive” each time. The Ratio with Mus musculus [18] was determined as 0.0525.
Turning to `COc1ccc2c(c1)CCCC21CC(=O)N(CCCCC[Se]C#N)C1=O` (stereo not drawn), the inhibition entry in the assay on Mus musculus [1], with Mus musculus [2], with Mus musculus [3], with Mus musculus [4], in the assay with Mus musculus [5] and with Mus musculus [6] was “Active” throughout. The inhibition entry in the assay with Mus musculus [7], with Mus musculus [10], with Mus musculus [11], in the assay on Mus musculus [12], in the assay with Mus musculus [13] and in the assay with Mus musculus [14] was “Active” throughout. The inhibition result in the assay with Mus musculus [15], in the assay with Mus musculus [21], in the assay with Mus musculus [22] and in the assay on Mus musculus [20] was “Active” throughout. Further, the inhibition entry in the assay with Mus musculus [8], in the assay on Mus musculus [9], in the assay with Mus musculus [16] and with Mus musculus [17] was “inactive” in each case. For the same molecule, the Ratio in the assay with Mus musculus [18] amounted to 0.047; in the assay with Mus musculus [19], 0.0428.

The record behind these values is ChEMBL document CHEMBL1208668, “Synthesis and biological evaluation of novel spiro 6-methoxytetralin-1,3'-pyrrolidine based organoselenocyanates against cadmium-induced oxidative and hepatic damage in mice” (2010).
